Measured values as given in PubChem BioAssay (NCI).
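Each compound was tested at five concentrations against cells in 96-well plates for 48 hours. GI50 marks 50% less growth. The concentration for full growth arrest is given as TGI.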

What was measured:
Experiment in all cases: NCI anticancer screen, dose series, 48 h
NCI/ADR-RES ovarian = system: NCI/ADR-RES ovarian
CAKI-1 renal = system: CAKI-1 renal
KM12 colon = system: KM12 colon
OVCAR-5 ovarian = system: OVCAR-5 ovarian
HOP-62 NSCLC = system: HOP-62 NSCLC
HL-60(TB) leukemia = system: HL-60(TB) leukemia
A549 NSCLC = system: A549 NSCLC
786-0 renal = system: 786-0 renal
T-47D breast = system: T-47D breast
MDA-MB-231 breast = system: MDA-MB-231 breast

SMILES | TGI (NCI/ADR-RES ovarian) | TGI (CAKI-1 renal) | TGI (KM12 colon) | TGI (OVCAR-5 ovarian) | TGI (HOP-62 NSCLC) | TGI (HL-60(TB) leukemia) | TGI (A549 NSCLC) | TGI (786-0 renal) | TGI (T-47D breast) | TGI (MDA-MB-231 breast) | GI50 (NCI/ADR-RES ovarian) | GI50 (T-47D breast) | GI50 (CAKI-1 renal) | GI50 (MDA-MB-231 breast) | GI50 (OVCAR-5 ovarian) | GI50 (HOP-62 NSCLC) | GI50 (HL-60(TB) leukemia) | GI50 (A549 NSCLC)
O=C(O)c1cn2c3c(cc(N4CCN(CCO)CC4)cc3c1=O)SCC2 | > 100 µM | > 100 µM | > 100 µM | > 100 µM | > 100 µM | > 100 µM | > 100 µM |  |  |  |  |  |  |  |  |  |  | 
COc1ccc(/C=c2\sc3n(c2=O)C(N)=C(C#N)C(c2ccc(OC)cc2)C=3c2nc3ccccc3[nH]2)cc1 (stereo not given) |  | 42.9 µM | 31 µM | 67.5 µM | > 100 µM | > 100 µM | > 100 µM | > 100 µM |  |  |  |  |  |  |  |  |  | 
CCOC(=O)C(C(=S)Nc1ccccc1)c1nn2c(=O)cc(C)nc2s1 (stereo not given) | 67.2 µM | 84.7 µM | 68.8 µM | > 100 µM | > 100 µM | 43.8 µM | > 100 µM | > 100 µM | 85.2 µM | 70 µM |  |  |  |  |  |  |  | 
Cc1ccc(OC2CC(n3cnc4ncnc(Cl)c43)OC2Oc2ccc(C)cc2)cc1 (stereo not given) | 64.9 µM | 5.93 µM | 74.4 µM | 58.3 µM | 90.2 µM | > 100 µM | 82.5 µM | > 100 µM | 28.8 µM | 50.2 µM |  |  |  |  |  |  |  | 
Nc1[nH]c(=S)nc2snnc12 | > 100 µM | > 100 µM | > 100 µM | > 100 µM | > 100 µM | > 100 µM | > 100 µM | > 100 µM | > 100 µM | > 100 µM |  |  |  |  |  |  |  | 
CN1C(=O)[C@@H]2[C@@H]3c4ccccc4N(S(=O)(=O)C(F)(F)F)[C@@H]3c3[nH]c4ccccc4c3[C@@H]2C1=O | > 100 µM | > 100 µM |  | > 100 µM | > 100 µM |  | > 100 µM | > 100 µM |  | > 100 µM |  |  |  |  |  |  |  | 
N#C/C(=C\NC(=S)c1ccncc1)c1nc2ccccc2s1 | > 100 µM | > 100 µM | > 100 µM | > 100 µM | > 100 µM | > 100 µM | > 100 µM | > 100 µM | > 100 µM | > 100 µM |  |  |  |  |  |  |  | 
COCOc1c(C(O[Si](C)(C)C(C)(C)C)c2cnc(Sc3ccccc3)n2C)ccc(OC)c1OC (stereo not given) | 2.75 µM | 10.1 µM | 3.93 µM | > 100 µM | 3.61 µM |  | 4.33 µM | 4.41 µM | > 100 µM | 3.19 µM |  |  |  |  |  |  |  | 
CCOC(=O)c1ccc(C(=O)/C(C(C)=O)=C2\CCCN2C)n1C | > 100 µM | > 100 µM | > 100 µM | > 100 µM | > 100 µM | 64.2 µM | > 100 µM | > 100 µM | 92 µM | > 100 µM |  |  |  |  |  |  |  | 
Fc1ccc2nc3n(c2c1)C(c1c(Cl)cccc1Cl)SC3 (stereo not given) | > 100 µM | > 100 µM | > 100 µM | > 100 µM | > 100 µM |  | > 100 µM | > 100 µM | > 100 µM | > 100 µM |  |  |  |  |  |  |  | 
CCOC(=O)NC(NC1=NCCS1)(C(=O)OCC)C(F)(F)F (stereo not given) | > 100 µM | > 100 µM | > 100 µM | > 100 µM | > 100 µM | > 100 µM | > 100 µM | > 100 µM | > 100 µM | > 100 µM |  |  |  |  |  |  |  | 
COc1ccc(/C=C2\CCC(CNc3ccc(OC)cc3)C2=O)cc1 (stereo not given) | > 100 µM | 41 µM | 23.8 µM | 38.1 µM | > 100 µM | 17.5 µM | > 94.1 µM | 23.2 µM | 57.1 µM | 35.7 µM |  |  |  |  |  |  |  | 
COC1(OC)CC(CO)(CNc2cc(Cl)nc(N)n2)C1 | > 100 µM | > 100 µM | > 100 µM | > 100 µM | > 100 µM | > 100 µM | > 100 µM | > 100 µM | > 100 µM | > 100 µM |  |  |  |  |  |  |  | 
COc1ccc2sc(-n3nc4ccccc4c3Nc3nc4ccc(OC)cc4s3)nc2c1 | 10.4 µM | 6.89 µM | 25.5 µM | 13.8 µM | 4.43 µM |  | 18.5 µM | 3.87 µM | 5.64 µM | 10.9 µM |  |  |  |  |  |  |  | 
CCOC(=O)C1OC(C2(C)OC3(OC4(C=CC3O)OC(C(C)C(=O)C(C)C(O)C(C)CC(C)c3c(Cl)cc(C)c(O)c3C(=O)O)C(C)CC4C)C(C)C2OC)CC1O (stereo not given) | 20.4 µM | 10.4 µM | 6.41 µM | 21 µM | 0.483 µM | 4.66 µM | 7.27 µM | 4.47 µM |  | 2.96 µM |  |  |  |  |  |  |  | 
O=C1/C(=C/c2ccccc2O)N=C(c2ccccc2)N1c1nc2ccccc2s1 | 52.1 µM | > 100 µM | > 100 µM | > 100 µM | > 100 µM | 2.97 µM |  | 53.8 µM | > 100 µM | 95.1 µM |  |  |  |  |  |  |  | 
COc1cc(/C=C/C(=O)c2c(C)nc3ccccc3c2C)ccc1OCCCOc1cc2c(cc1OC)C(=O)N1CCC[C@H]1C=N2 | 5.92 µM | 0.138 µM |  | 0.0868 µM | 0.0609 µM |  | 0.0623 µM |  |  | 0.0985 µM | 0.393 µM | 0.041 µM | 0.0291 µM | 0.0306 µM | 0.03 µM | 0.0303 µM | 0.0356 µM | 0.0268 µM
CC1OC2(CC(OCc3ccccc3)C1OCc1ccccc1)OCCO2 (stereo not given) | > 100 µM | > 100 µM | > 100 µM | > 100 µM | > 100 µM | 48.9 µM | > 100 µM | > 100 µM |  | > 100 µM |  |  |  |  |  |  |  | 
c1ccc2c(c1)ncn2C1CCCCO1 (stereo not given) | > 100 µM |  | > 100 µM | > 100 µM | > 100 µM | > 100 µM | > 100 µM | > 100 µM | > 100 µM | > 100 µM |  |  |  |  |  |  |  | 
CCCCCCCCCCCCCC[n+]1ccc2c(C)c3c(c(C)c2c1)c1cc(O)ccc1n3CC | 32.3 µM |  |  | 1.85 µM | 1.94 µM | 1.95 µM |  |  |  | 2.1 µM | 5.13 µM |  |  | 0.602 µM | 0.497 µM | 0.408 µM | 0.378 µM | 
Cc1cccnc1/N=C/c1c(O)n(C)c(=O)[nH]c1=O |  | > 100 µM | > 100 µM | > 100 µM | > 100 µM | > 100 µM | > 100 µM | > 100 µM | > 100 µM |  |  |  |  |  |  |  |  | 
c1csc(-c2cc(-c3cccs3)c(-c3cccs3)s2)c1 | > 100 µM | > 100 µM | > 100 µM | > 100 µM | > 100 µM |  | > 100 µM | > 100 µM | 77 µM | > 100 µM |  |  |  |  |  |  |  | 
